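How tested: cells in 96-well plates exposed to compound for 48 hours at five concentrations. The concentration for 50% growth inhibition is given as GI50.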 The source made the active and inactive calls. Rule as the data show it: active = GI50 up to about 1.1 µM and inactive = higher.
Experiments:
Assay in all cases: growth of human tumour cells (NCI), 48 h
HOP-62 = tested on: HOP-62
TK-10 = tested on: TK-10
BT-549 = tested on: BT-549
OVCAR-5 = tested on: OVCAR-5
OVCAR-8 = tested on: OVCAR-8
DU-145 = tested on: DU-145
786-0 = tested on: 786-0
UO-31 = tested on: UO-31
NCI-H522 = tested on: NCI-H522
SW-620 = tested on: SW-620
HCC 2998 = tested on: HCC 2998
SK-MEL-28 = tested on: SK-MEL-28
HT-29 = tested on: HT-29
SK-MEL-5 = tested on: SK-MEL-5
K562 = tested on: K562
MDA-MB-231 = tested on: MDA-MB-231
NCI-H23 = tested on: NCI-H23
A549 = tested on: A549
PC-3 = tested on: PC-3
OVCAR-3 = tested on: OVCAR-3
LOX IMVI = tested on: LOX IMVI
HCT-116 = tested on: HCT-116
SNB-75 = tested on: SNB-75
MCF7 = tested on: MCF7
NCI-H226 = tested on: NCI-H226
SR = tested on: SR
SN12C = tested on: SN12C
SF-268 = tested on: SF-268
SF-539 = tested on: SF-539
COLO 205 = tested on: COLO 205
MDA-MB-435 = tested on: MDA-MB-435
T47D = tested on: T47D
KM12 = tested on: KM12
SF-295 = tested on: SF-295
SNB-19 = tested on: SNB-19
Malme-3M = tested on: Malme-3M
SK-OV-3 = tested on: SK-OV-3
RXF 393 = tested on: RXF 393
EKVX = tested on: EKVX
CCRF-CEM = tested on: CCRF-CEM
IGROV-1 = tested on: IGROV-1
NCI/ADR-RES = tested on: NCI/ADR-RES
U-251 = tested on: U-251
M14 = tested on: M14
HCT-15 = tested on: HCT-15
ACHN = tested on: ACHN
UACC-257 = tested on: UACC-257
RPMI-8226 = tested on: RPMI-8226
MDA-N = tested on: MDA-N
CAKI-1 = tested on: CAKI-1
UACC-62 = tested on: UACC-62
HL-60 = tested on: HL-60
MOLT-4 = tested on: MOLT-4
A498 = tested on: A498
SK-MEL-2 = tested on: SK-MEL-2
OVCAR-4 = tested on: OVCAR-4
HOP-92 = tested on: HOP-92
NCI-H460 = tested on: NCI-H460

Measured: GI50

CC#CC(O)(C(=O)OC1CC(C)N(C)C(C)(C)C1)C1CCCC1 (stereo not given)
inactive: HOP-62 > 100 µM | TK-10 > 100 µM | BT-549 > 100 µM | OVCAR-5 > 100 µM | OVCAR-8 > 100 µM | DU-145 > 100 µM | 786-0 > 100 µM | UO-31 > 100 µM | NCI-H522 > 100 µM | SW-620 > 100 µM | HCC 2998 > 100 µM | SK-MEL-28 > 100 µM | HT-29 > 100 µM | SK-MEL-5 > 100 µM | K562 > 100 µM | MDA-MB-231 > 100 µM | NCI-H23 > 100 µM | A549 > 100 µM | PC-3 > 100 µM | OVCAR-3 > 100 µM | LOX IMVI > 100 µM | HCT-116 > 100 µM | SNB-75 > 100 µM | MCF7 > 100 µM | NCI-H226 > 100 µM | SR > 100 µM | SN12C > 100 µM | SF-268 > 100 µM | SF-539 > 100 µM | COLO 205 > 100 µM | MDA-MB-435 > 100 µM | T47D > 100 µM | KM12 > 100 µM | SF-295 > 100 µM | SNB-19 > 100 µM | Malme-3M > 100 µM | SK-OV-3 > 100 µM | RXF 393 > 100 µM | EKVX > 100 µM | CCRF-CEM > 100 µM | IGROV-1 > 100 µM | NCI/ADR-RES 29 µM | U-251 > 100 µM | M14 > 100 µM | ACHN > 100 µM | UACC-257 > 100 µM | RPMI-8226 > 100 µM | MDA-N > 100 µM | CAKI-1 > 100 µM | UACC-62 > 100 µM | HL-60 > 100 µM | MOLT-4 > 100 µM
> 100 µM: HCT-15

NN/C(=N\S(=O)(=O)c1cccc2nsnc12)Nc1ccc(Cl)cc1
> 100 µM: HCT-15
inactive: HOP-62 > 100 µM | TK-10 > 100 µM | BT-549 > 100 µM | OVCAR-5 > 100 µM | OVCAR-8 > 100 µM | DU-145 > 100 µM | 786-0 > 100 µM | UO-31 > 100 µM | SW-620 > 100 µM | SK-MEL-28 > 100 µM | HT-29 > 100 µM | SK-MEL-5 > 100 µM | K562 > 100 µM | MDA-MB-231 > 100 µM | NCI-H23 > 100 µM | A549 > 100 µM | A498 > 100 µM | PC-3 > 100 µM | OVCAR-3 > 100 µM | LOX IMVI > 100 µM | HCT-116 > 100 µM | SNB-75 65.9 µM | MCF7 > 100 µM | NCI-H226 > 100 µM | SK-MEL-2 > 100 µM | SR > 100 µM | SN12C > 100 µM | SF-268 26.2 µM | SF-539 > 100 µM | COLO 205 > 100 µM | OVCAR-4 > 100 µM | T47D 48.6 µM | KM12 > 100 µM | SF-295 > 100 µM | SNB-19 > 100 µM | SK-OV-3 > 100 µM | RXF 393 > 100 µM | EKVX > 100 µM | CCRF-CEM > 100 µM | HOP-92 > 100 µM | IGROV-1 > 100 µM | NCI/ADR-RES > 100 µM | U-251 > 100 µM | M14 > 100 µM | ACHN > 100 µM | UACC-257 > 100 µM | RPMI-8226 > 100 µM | MDA-N > 100 µM | NCI-H460 > 100 µM | CAKI-1 > 100 µM | UACC-62 > 100 µM | HL-60 9.98 µM | MOLT-4 61 µM

CC(C(N)=O)N(C)C(=O)c1cc2ccccc2[n+](Cc2ccccc2)c1 (stereo not given)
inactive: TK-10 > 100 µM | BT-549 > 100 µM | OVCAR-5 > 100 µM | OVCAR-8 > 100 µM | DU-145 > 100 µM | 786-0 > 100 µM | UO-31 > 100 µM | NCI-H522 > 100 µM | SW-620 > 100 µM | HCC 2998 > 100 µM | SK-MEL-28 > 100 µM | HT-29 > 100 µM | SK-MEL-5 > 100 µM | K562 > 100 µM | MDA-MB-231 > 100 µM | NCI-H23 > 100 µM | A549 > 100 µM | A498 > 100 µM | PC-3 > 100 µM | OVCAR-3 > 100 µM | HCT-116 > 100 µM | SNB-75 > 100 µM | MCF7 > 100 µM | NCI-H226 > 100 µM | SK-MEL-2 > 100 µM | SN12C > 100 µM | SF-268 > 100 µM | SF-539 > 100 µM | COLO 205 > 100 µM | MDA-MB-435 > 100 µM | OVCAR-4 > 100 µM | T47D > 100 µM | KM12 > 100 µM | SF-295 > 100 µM | SNB-19 > 100 µM | Malme-3M > 100 µM | RXF 393 > 100 µM | CCRF-CEM > 100 µM | HOP-92 > 100 µM | IGROV-1 > 100 µM | NCI/ADR-RES > 100 µM | U-251 > 100 µM | M14 > 100 µM | ACHN > 100 µM | UACC-257 > 100 µM | RPMI-8226 > 100 µM | MDA-N > 100 µM | NCI-H460 > 100 µM | CAKI-1 > 100 µM | UACC-62 > 100 µM | HL-60 > 100 µM | MOLT-4 > 100 µM
> 100 µM: HCT-15
